US12391692B2, “Spiro ring-containing quinazoline compound” (WIGEN BIOMEDICINE TECHNOLOGY (SHANGHAI) CO., LTD., priority 2020, dated 2025)
pIC50: −log10 of the molar value.

Experiments:
[1] = test system: H358 cells; assay: Antiproliferative activity against H358 cells (Cell Titer Glow, ultra-low attachment plate); format: cell-based; details: Homo sapiens, NCI-H358, 72 h, three days after addition of compound
Procedure: 2500 H358 cells were seeded in a 96-well ultra-low attachment plate (corning, 7007). After one day of growth, a serially diluted compound (a maximum concentration of 5 μM, 5-fold dilution, a total of five doses) was added. Three days after the addition of the compound, Cell Titer Glow (Promega, G9681) was added to evaluate pellet growth, and the IC50 value was calculated.

[2] = test system: pERK level in H358 cells; assay: pERK and ERK protein content assay in H358 cells (ELISA); format: cell-based; details: Homo sapiens, NCI-H358, pERK/ERK ratio vs DMSO group, compound 1 μM, 24 h, read-out: Inhibition rate (%)
Procedure: H358 cells were seeded in a 24-well plate. After one day of growth, a test compound (at a concentration of 1 μM) was added. After 24 h of action of the compound, the cells were lysed, and the cell lysate was transferred to a 96-well ELISA plate. The levels of pERK and ERK in the lysate were measured using an ELISA kit (abcam 176660). The ratio of pERK to ERK was calculated and compared with that of the DMSO group, and the percentage of inhibition of pERK activity by the compound was calculated.

Row | pIC50 [1] | SMILES | inhibition at 1 µM [2]
1 | > 6.52 | C=CC(=O)N1CC2(CCN(c3nc(N4CC(COC5CC5)C4)nc4c(OCC(F)(F)F)c(-c5c(C)ccc6[nH]ncc56)c(C5CC5)cc34)CC2)C1 [Compound 10] | > 90%
2 | > 6.52 | C=CC(=O)N1CC2(CCN(c3nc(N4CC(N5CC6(CCC6)C5)C4)nc4c(OCC(F)(F)F)c(-c5c(C)ccc6[nH]ncc56)c(C5CC5)cc34)CC2)C1 [Compound 29] | > 90%
3 | > 6.52 | C=CC(=O)N1CC2(CCN(c3nc(N4CC(S(=O)(=O)N5CCN(C)CC5)C4)nc4c(OCC(F)(F)F)c(-c5c(C)ccc6[nH]ncc56)c(C5CC5)cc34)CC2)C1 [Compound 49] | > 90%
4 | > 6.52 | C=CC(=O)N1CC2(CCN(c3nc(N4CC(C(=O)N5CC(N(C)C)C5)C4)nc4c(OCC(F)(F)F)c(-c5c(C)ccc6[nH]ncc56)c(C5CC5)cc34)CC2)C1 [Compound 47] | > 90%
5 | > 6.52 | C=CC(=O)N1CC2(CCN(c3nc(N4CCC5(CCN5C)C4)nc4c(OCC(F)(F)F)c(-c5c(C)ccc6[nH]ncc56)c(C5CC5)cc34)CC2)C1 (centres unmarked) [Compound 77] | > 90%
6 | > 6.52 | C=CC(=O)N1CC2(CCN(c3nc(N4CC(N5CCC6(CC6)C5)C4)nc4c(OCC(F)(F)F)c(-c5c(C)ccc6[nH]ncc56)c(CC)cc34)CC2)C1 [Compound 114] | > 90%
7 | > 6.52 | C=CC(=O)N1CC2(CCN(c3nc(N4CC(O)C4)nc4c(OCC(F)(F)F)c(-c5c(C)ccc6[nH]ncc56)c(C5CC5)cc34)CC2)C1 [Compound 2] | > 90%
8 | > 6.52 | C=CC(=O)N1CC2(CCN(c3nc(N4CC5(CCN5C)C4)nc4c(OCC(F)(F)F)c(-c5c(C)ccc6[nH]ncc56)c(C5CC5)cc34)CC2)C1 [Compound 67] | > 90%
9 | 6.00 to 6.52 | C=CC(=O)N1CC2(CCN(c3nc(N4CC5(CCCCN5C)C4)nc4c(OCC(F)(F)F)c(-c5c(C)ccc6[nH]ncc56)c(C5CC5)cc34)CC2)C1 [Compound 75] | 50 to 90%
10 | > 6.52 | C=CC(=O)N1CC2(CCN(c3nc(N4CC5(C=CCN5CC)C4)nc4c(OCC(F)(F)F)c(-c5c(C)ccc6[nH]ncc56)c(C5CC5)cc34)CC2)C1 [Compound 128] | > 90%
11 | > 6.52 | C=CC(=O)N1CC2(CCN(c3nc(N4CC5(CN(C)CCO5)C4)nc4c(OCC(F)(F)F)c(-c5c(C)ccc6[nH]ncc56)c(C5CC5)cc34)CC2)C1 [Compound 81] | > 90%
12 | > 6.52 | C=CC(=O)N1CC2(CCN(c3nc(O[C@H]4C[C@@H](N5CC6(CCC6)C5)C4)nc4c(OCC(F)(F)F)c(-c5c(C)ccc6[nH]ncc56)c(C5CC5)cc34)CC2)C1 [Compound 95] | > 90%
13 | > 6.52 | C=CC(=O)N1CC2(CCN(c3nc(N4CC5(CCCN5CC)C4)nc4c(OCC(F)(F)F)c(-c5c(C)ccc6[nH]ncc56)c(C=C)cc34)CC2)C1 [Compound 132] | > 90%
14 | > 6.52 | C=CC(=O)N1CC2(CCN(c3nc(N4CC(N5CCC6(CC6)C5)C4)nc4c(OCC(F)(F)F)c(-c5c(C)ccc6[nH]ncc56)c(C5CC5)cc34)CC2)C1 [Compound 35] | > 90%
15 | > 6.52 | C=CC(=O)N1CC2(CCN(c3nc(N4CC5(CCCCN5CCOC)C4)nc4c(OCC(F)(F)F)c(-c5c(C)ccc6[nH]ncc56)c(C5CC5)cc34)CC2)C1 [Compound 76] | > 90%
16 | > 6.52 | C=CC(=O)N1CC2(CCN(c3nc(N4CC(N5CC6(CC6)C5)C4)nc4c(OCC(F)(F)F)c(-c5c(O)cccc5F)c(C5CC5)cc34)CC2)C1 [Compound 112] | > 90%
17 | > 6.52 | C=CC(=O)N1CC2(CCN(c3nc(N4CC5(CCCN5CCF)C4)nc4c(OCC(F)(F)F)c(-c5c(C)ccc6[nH]ncc56)c(C5CC5)cc34)CC2)C1 [Compound 118] | > 90%
18 | > 6.52 | C=CC(=O)N1CC2(CCN(c3nc(N4CC5(CCN5C5COC5)C4)nc4c(OCC(F)(F)F)c(-c5c(C)ccc6[nH]ncc56)c(C5CC5)cc34)CC2)C1 [Compound 71] | > 90%
19 | > 6.52 | C=CC(=O)N1CC2(CCN(c3nc(N4CCC5(CCN5CCOC)C4)nc4c(OCC(F)(F)F)c(-c5c(C)ccc6[nH]ncc56)c(C5CC5)cc34)CC2)C1 (centres unmarked) [Compound 78] | > 90%
20 | > 6.52 | C=CC(=O)N1CC2(CCN(c3nc(N4CC5(CC(OC)CN5C)C4)nc4c(OCC(F)(F)F)c(-c5c(C)ccc6[nH]ncc56)c(C5CC5)cc34)CC2)C1 (centres unmarked) [Compound 123] | > 90%
21 | > 6.52 | C=CC(=O)N1CC2(CCN(c3nc(N4CC5(CCCN5C(C)C)C4)nc4c(OCC(F)(F)F)c(-c5c(C)ccc6[nH]ncc56)c(C5CC5)cc34)CC2)C1 [Compound 117] | > 90%

The next lines start with the molecule.

Row | SMILES | pIC50 [1] | inhibition at 1 µM [2]
22 | C=CC(=O)N1CC2(CCN(c3nc(N4CC(N(C)CCCO)C4)nc4c(OCC(F)(F)F)c(-c5c(C)ccc6[nH]ncc56)c(C5CC5)cc34)CC2)C1 [Compound 23] | > 6.52 | > 90%
23 | C=CC(=O)N1CC2(CCN(c3nc(N4CC(OC5CCN(C)CC5)C4)nc4c(OCC(F)(F)F)c(-c5c(C)ccc6[nH]ncc56)c(C5CC5)cc34)CC2)C1 [Compound 15] | > 6.52 | > 90%
24 | C=CC(=O)N1CC2(CCN(c3nc(N4CCOC5(CN(C)C5)C4)nc4c(OCC(F)(F)F)c(-c5c(C)ccc6[nH]ncc56)c(C5CC5)cc34)CC2)C1 [Compound 83] | 6.00 to 6.52 | 50 to 90%
25 | C=CC(=O)N1CC2(CCN(c3nc(N4CC5(CCCN5C)C4)nc4c(OCC(F)(F)F)c(-c5c(C)ccc6[nH]ncc56)c(C5CC5)cc34)CC2)C1 [Compound 73] | > 6.52 | > 90%
26 | C=CC(=O)N1CC2(CCN(c3nc(N4CC(N5CCC6(CC5)CC6)C4)nc4c(OCC(F)(F)F)c(-c5c(C)ccc6[nH]ncc56)c(C5CC5)cc34)CC2)C1 [Compound 36] | 6.00 to 6.52 | 50 to 90%
27 | C=CC(=O)N1CC2(CCN(c3nc(N4CC(CN5CCOCC5)C4)nc4c(OCC(F)(F)F)c(-c5c(C)ccc6[nH]ncc56)c(C5CC5)cc34)CC2)C1 [Compound 8] | 6.00 to 6.52 | 50 to 90%
28 | C=CC(=O)N1CC2(CCN(c3nc(N4CC(OCC5CN(C)C5)C4)nc4c(OCC(F)(F)F)c(-c5c(C)ccc6[nH]ncc56)c(C5CC5)cc34)CC2)C1 [Compound 19] | > 6.52 | > 90%
29 | C=CC(=O)N1CC2(CCN(c3nc(N4CC(N5CCC56CC6)C4)nc4c(OCC(F)(F)F)c(-c5c(C)ccc6[nH]ncc56)c(C5CC5)cc34)CC2)C1 [Compound 34] | > 6.52 | > 90%
30 | C=CC(=O)N1CC2(CCN(c3nc(N4CCC5(CCCN5CCOC)CC4)nc4c(OCC(F)(F)F)c(-c5c(C)ccc6[nH]ncc56)c(C5CC5)cc34)CC2)C1 [Compound 80] | 6.00 to 6.52 | 50 to 90%
31 | C=CC(=O)N1CC2(CCN(c3nc(N4CC(N5CC6(COC6)C5)C4)nc4c(OCC(F)(F)F)c(-c5c(C)ccc6[nH]ncc56)c(C5CC5)cc34)CC2)C1 [Compound 30] | > 6.52 | > 90%
32 | C=CC(=O)N1CC2(CCN(c3nc(O[C@H]4C[C@@H](N(C)C)C4)nc4c(OCC(F)(F)F)c(-c5c(C)ccc6[nH]ncc56)c(C5CC5)cc34)CC2)C1 [Compound 85] | > 6.52 | > 90%
33 | C=CC(=O)N1CC2(CCN(c3nc(N4CC(CC#N)(n5ccnc5)C4)nc4c(OCC(F)(F)F)c(-c5c(C)ccc6[nH]ncc56)c(C5CC5)cc34)CC2)C1 [Compound 57] | 6.00 to 6.52 | 50 to 90%
34 | C=CC(=O)N1CC2(CCN(c3nc(N4CC(N5CC6(CC6)C5)C4)nc4c(OCC(F)(F)F)c(-c5c(C)c(F)cc6[nH]ncc56)c(C5CC5)cc34)CC2)C1 [Compound 104] | > 6.52 | > 90%
35 | C=CC(=O)N1CC2(CCN(c3nc(O[C@H]4C[C@H](N5CC6(CC6)C5)C4)nc4c(OCC(F)(F)F)c(-c5c(C)ccc6[nH]ncc56)c(C5CC5)cc34)CC2)C1 [Compound 94] | 6.00 to 6.52 | 50 to 90%
36 | C=CC(=O)N1CC2(CCN(c3nc(N4CC(n5cccc5)C4)nc4c(OCC(F)(F)F)c(-c5c(C)ccc6[nH]ncc56)c(C5CC5)cc34)CC2)C1 [Compound 39] | 6.00 to 6.52 | 50 to 90%
37 | C=CC(=O)N1CC2(CCN(c3nc(N4CC(S(=O)(=O)N5CC(N(C)C)C5)C4)nc4c(OCC(F)(F)F)c(-c5c(C)ccc6[nH]ncc56)c(C5CC5)cc34)CC2)C1 [Compound 50] | 6.00 to 6.52 | 50 to 90%
